Reference: ChEMBL document CHEMBL4507300 (2021)

Columns and labels:
Histamine H1 receptor = Histamine H1 receptor (Homo sapiens, UniProt P35367); assay: GPCRScan assay: inhibition of H1; parameters: radioligand conc. used [nm] 0.6 – 2.0, parental cells stable HEK
[1] = target: Sigma intracellular receptor 2 (Homo sapiens, UniProt Q5BJF2); assay: GPCRScan assay: inhibition of Sigma 2; parameters: radioligand conc. used [nm] 5.0, parental cells HEKT
[2] = system: Tyrosine-protein kinase ABL1 (Homo sapiens), P00519 [F317L]; conditions: Compound concentration 1000.0 nM
[3] = target: Tyrosine-protein kinase ABL1 (Homo sapiens) (UniProt P00519); conditions: Compound concentration 1000.0 nM
[4] = target: Atypical kinase COQ8A, mitochondrial (Homo sapiens) (UniProt Q8NI60); conditions: Compound concentration 1000.0 nM
[5] = target: RAC-beta serine/threonine-protein kinase (Homo sapiens) (UniProt P31751); conditions: Compound concentration 1000.0 nM
Chain of RAC-beta serine/threonine-protein kinase (Homo sapiens) (P31751 whole entry): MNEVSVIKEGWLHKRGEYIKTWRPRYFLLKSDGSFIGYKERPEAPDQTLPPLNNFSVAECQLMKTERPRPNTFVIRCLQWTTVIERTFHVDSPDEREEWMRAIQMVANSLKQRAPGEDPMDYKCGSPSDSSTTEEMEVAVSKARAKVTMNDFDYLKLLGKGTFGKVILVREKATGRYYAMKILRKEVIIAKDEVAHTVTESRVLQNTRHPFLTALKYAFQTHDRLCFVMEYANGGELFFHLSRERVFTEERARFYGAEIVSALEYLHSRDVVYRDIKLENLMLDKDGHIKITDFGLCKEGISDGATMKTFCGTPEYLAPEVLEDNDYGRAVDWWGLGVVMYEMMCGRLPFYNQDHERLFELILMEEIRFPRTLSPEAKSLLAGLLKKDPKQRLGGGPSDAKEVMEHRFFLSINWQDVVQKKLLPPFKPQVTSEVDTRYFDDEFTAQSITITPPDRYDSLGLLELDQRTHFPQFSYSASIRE

[6] = target: Cytoplasmic tyrosine-protein kinase BMX (Homo sapiens) (UniProt P51813); conditions: Compound concentration 1000.0 nM
[7] = target: Protein-tyrosine kinase 6 (Homo sapiens) (UniProt Q13882); conditions: Compound concentration 1000.0 nM
Chain of Protein-tyrosine kinase 6 (Homo sapiens) (Q13882 whole entry, looked up): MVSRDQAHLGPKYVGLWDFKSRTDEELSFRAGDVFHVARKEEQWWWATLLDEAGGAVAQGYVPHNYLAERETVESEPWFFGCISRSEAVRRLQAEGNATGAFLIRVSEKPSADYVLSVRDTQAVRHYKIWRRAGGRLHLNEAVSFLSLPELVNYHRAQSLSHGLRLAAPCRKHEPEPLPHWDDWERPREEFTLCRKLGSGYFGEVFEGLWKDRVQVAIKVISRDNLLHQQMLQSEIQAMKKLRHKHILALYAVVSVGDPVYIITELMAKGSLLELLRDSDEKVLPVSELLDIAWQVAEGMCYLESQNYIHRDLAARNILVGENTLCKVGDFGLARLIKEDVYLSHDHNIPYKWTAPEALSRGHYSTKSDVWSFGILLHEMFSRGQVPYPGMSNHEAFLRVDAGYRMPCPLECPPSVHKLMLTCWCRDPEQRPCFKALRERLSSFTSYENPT

[8] = target: Calcium/calmodulin-dependent protein kinase type 1B (Homo sapiens) (UniProt Q6P2M8); conditions: Compound concentration 1000.0 nM
[9] = target: Cyclin-dependent kinase-like 3 (Homo sapiens) (UniProt Q8IVW4); conditions: Compound concentration 1000.0 nM
[10] = target: Casein kinase I isoform alpha-like (Homo sapiens) (UniProt Q8N752); conditions: Compound concentration 1000.0 nM
[11] = target: Death-associated protein kinase 3 (Homo sapiens) (UniProt O43293); conditions: Compound concentration 1000.0 nM
Chain of Death-associated protein kinase 3 (Homo sapiens) (O43293 whole entry, looked up): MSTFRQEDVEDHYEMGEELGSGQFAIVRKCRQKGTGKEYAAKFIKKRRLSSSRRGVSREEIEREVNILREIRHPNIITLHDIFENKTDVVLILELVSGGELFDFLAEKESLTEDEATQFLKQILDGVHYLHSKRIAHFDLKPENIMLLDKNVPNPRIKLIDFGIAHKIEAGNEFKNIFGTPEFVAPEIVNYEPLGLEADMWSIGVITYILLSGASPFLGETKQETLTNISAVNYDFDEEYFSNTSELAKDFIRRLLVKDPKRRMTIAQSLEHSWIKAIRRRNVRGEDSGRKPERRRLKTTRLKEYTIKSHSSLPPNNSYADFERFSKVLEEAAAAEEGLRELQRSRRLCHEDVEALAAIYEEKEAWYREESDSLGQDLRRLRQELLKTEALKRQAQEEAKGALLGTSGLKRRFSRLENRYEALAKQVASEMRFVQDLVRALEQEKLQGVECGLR

[12] = target: Serine/threonine-protein kinase DCLK1 (Homo sapiens) (UniProt O15075); conditions: Compound concentration 1000.0 nM
[13] = target: Serine/threonine-protein kinase 17B (Homo sapiens) (UniProt O94768); conditions: Compound concentration 1000.0 nM
Chain of Serine/threonine-protein kinase 17B (Homo sapiens) (O94768 whole entry): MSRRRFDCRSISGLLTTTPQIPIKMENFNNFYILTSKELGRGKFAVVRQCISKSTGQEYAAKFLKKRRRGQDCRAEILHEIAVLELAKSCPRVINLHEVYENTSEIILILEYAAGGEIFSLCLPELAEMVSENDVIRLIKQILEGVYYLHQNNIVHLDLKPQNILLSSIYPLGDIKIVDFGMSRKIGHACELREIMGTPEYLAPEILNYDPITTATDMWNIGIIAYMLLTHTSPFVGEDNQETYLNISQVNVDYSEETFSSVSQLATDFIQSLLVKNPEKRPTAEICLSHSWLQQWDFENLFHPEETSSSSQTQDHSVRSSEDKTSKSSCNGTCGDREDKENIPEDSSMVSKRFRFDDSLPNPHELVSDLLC

[14] = target: Ephrin type-A receptor 8 (Homo sapiens) (UniProt P29322); conditions: Compound concentration 1000.0 nM
[15] = system: Fibroblast growth factor receptor 3 (Homo sapiens), P22607 [G697C]; conditions: Compound concentration 1000.0 nM
[16] = target: Receptor-type tyrosine-protein kinase FLT3 (Homo sapiens) (UniProt P36888); conditions: Compound concentration 1000.0 nM
[17] = target: Homeodomain-interacting protein kinase 1 (Homo sapiens) (UniProt Q86Z02); conditions: Compound concentration 1000.0 nM
Chain of Homeodomain-interacting protein kinase 1 (Homo sapiens) (Q86Z02 whole entry, looked up): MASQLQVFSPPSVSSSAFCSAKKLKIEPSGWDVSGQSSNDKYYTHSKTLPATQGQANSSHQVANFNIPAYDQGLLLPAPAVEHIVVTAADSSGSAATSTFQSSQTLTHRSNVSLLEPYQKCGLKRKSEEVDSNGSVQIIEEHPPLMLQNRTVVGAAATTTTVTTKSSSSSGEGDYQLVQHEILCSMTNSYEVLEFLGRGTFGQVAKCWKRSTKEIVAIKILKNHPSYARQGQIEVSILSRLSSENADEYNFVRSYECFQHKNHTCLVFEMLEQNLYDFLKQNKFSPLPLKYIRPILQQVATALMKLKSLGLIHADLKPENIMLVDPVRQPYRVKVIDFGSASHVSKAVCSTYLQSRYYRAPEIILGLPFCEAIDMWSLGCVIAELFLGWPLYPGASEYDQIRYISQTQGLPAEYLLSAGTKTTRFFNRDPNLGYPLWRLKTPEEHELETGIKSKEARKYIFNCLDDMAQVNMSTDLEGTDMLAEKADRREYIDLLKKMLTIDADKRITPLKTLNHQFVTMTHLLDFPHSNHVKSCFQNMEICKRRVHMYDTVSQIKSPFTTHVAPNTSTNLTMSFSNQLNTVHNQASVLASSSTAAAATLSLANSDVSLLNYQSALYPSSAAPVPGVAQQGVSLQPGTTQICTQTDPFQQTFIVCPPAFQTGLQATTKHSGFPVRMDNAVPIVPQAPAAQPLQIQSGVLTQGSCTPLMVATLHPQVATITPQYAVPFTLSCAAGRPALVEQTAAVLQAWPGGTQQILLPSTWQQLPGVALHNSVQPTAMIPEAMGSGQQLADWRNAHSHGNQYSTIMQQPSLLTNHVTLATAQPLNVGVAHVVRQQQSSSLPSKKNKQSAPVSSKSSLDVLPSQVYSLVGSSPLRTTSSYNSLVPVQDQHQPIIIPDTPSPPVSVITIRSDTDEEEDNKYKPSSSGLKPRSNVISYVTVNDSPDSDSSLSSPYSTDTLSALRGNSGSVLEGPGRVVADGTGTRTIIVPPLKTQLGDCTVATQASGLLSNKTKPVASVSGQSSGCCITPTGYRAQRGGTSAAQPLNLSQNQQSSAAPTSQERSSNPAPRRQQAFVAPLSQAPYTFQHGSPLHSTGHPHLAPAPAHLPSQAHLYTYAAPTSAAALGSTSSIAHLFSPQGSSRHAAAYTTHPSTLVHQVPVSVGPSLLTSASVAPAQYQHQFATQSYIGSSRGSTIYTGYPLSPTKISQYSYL

[18] = target: Homeodomain-interacting protein kinase 3 (Homo sapiens) (UniProt Q9H422); conditions: Compound concentration 1000.0 nM
[19] = target: Homeodomain-interacting protein kinase 4 (Homo sapiens) (UniProt Q8NE63); conditions: Compound concentration 1000.0 nM
[20] = target: Insulin receptor (Homo sapiens) (UniProt P06213); conditions: Compound concentration 1000.0 nM
Chain of Insulin receptor (Homo sapiens) (P06213 28-758 limits assumed): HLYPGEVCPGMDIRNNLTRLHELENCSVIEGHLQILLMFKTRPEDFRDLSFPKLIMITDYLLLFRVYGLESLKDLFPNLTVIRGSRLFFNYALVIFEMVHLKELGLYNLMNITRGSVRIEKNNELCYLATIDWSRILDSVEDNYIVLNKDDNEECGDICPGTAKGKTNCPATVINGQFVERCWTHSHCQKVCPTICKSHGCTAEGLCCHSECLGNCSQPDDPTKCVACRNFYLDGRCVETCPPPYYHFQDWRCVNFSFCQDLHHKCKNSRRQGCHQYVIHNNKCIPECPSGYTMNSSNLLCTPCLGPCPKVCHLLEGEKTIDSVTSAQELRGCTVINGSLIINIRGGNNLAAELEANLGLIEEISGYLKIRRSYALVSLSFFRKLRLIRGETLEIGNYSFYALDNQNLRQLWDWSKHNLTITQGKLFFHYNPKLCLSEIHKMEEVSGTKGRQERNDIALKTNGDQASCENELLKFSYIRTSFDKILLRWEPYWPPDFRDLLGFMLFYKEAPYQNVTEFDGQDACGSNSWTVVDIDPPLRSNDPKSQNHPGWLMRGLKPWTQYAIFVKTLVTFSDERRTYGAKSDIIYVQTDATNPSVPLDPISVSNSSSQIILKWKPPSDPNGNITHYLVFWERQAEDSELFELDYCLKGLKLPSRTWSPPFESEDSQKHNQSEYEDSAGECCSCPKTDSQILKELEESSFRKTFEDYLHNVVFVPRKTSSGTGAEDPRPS
Chain of Insulin receptor (Homo sapiens) (P06213 763-1382 limits assumed): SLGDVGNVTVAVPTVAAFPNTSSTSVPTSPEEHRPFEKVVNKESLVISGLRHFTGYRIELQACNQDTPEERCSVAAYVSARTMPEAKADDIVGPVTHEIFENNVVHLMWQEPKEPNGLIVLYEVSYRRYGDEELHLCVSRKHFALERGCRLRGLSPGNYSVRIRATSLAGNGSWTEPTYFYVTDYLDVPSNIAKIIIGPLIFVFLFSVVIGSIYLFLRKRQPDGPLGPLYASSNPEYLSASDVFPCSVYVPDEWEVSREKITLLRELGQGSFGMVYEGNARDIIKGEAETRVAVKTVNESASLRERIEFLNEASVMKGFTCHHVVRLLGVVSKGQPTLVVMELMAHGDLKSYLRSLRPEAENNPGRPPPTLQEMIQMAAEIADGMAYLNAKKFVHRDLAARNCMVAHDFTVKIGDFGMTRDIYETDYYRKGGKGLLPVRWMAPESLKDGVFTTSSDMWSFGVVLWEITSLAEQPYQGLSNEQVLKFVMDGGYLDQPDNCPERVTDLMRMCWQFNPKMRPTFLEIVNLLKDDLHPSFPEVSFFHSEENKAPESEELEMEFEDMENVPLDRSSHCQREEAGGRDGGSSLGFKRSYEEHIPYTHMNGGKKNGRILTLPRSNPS

[21] = system: Leucine-rich repeat serine/threonine-protein kinase 2 (Homo sapiens), Q5S007 [G2019S]; conditions: Compound concentration 1000.0 nM
[22] = target: Mitogen-activated protein kinase kinase kinase 1 (Homo sapiens) (UniProt Q13233); conditions: Compound concentration 1000.0 nM
[23] = target: Maternal embryonic leucine zipper kinase (Homo sapiens) (UniProt Q14680); conditions: Compound concentration 1000.0 nM
[24] = target: Tyrosine-protein kinase Mer (Homo sapiens) (UniProt Q12866); conditions: Compound concentration 1000.0 nM
[25] = target: Misshapen-like kinase 1 (Homo sapiens) (UniProt Q8N4C8); conditions: Compound concentration 1000.0 nM
[26] = target: Dual specificity mitogen-activated protein kinase kinase 7 (Homo sapiens) (UniProt O14733); conditions: Compound concentration 1000.0 nM
[27] = target: Serine/threonine-protein kinase 4 (Homo sapiens) (UniProt Q13043); conditions: Compound concentration 1000.0 nM
Chain of Serine/threonine-protein kinase 4 (Homo sapiens) (Q13043 whole entry): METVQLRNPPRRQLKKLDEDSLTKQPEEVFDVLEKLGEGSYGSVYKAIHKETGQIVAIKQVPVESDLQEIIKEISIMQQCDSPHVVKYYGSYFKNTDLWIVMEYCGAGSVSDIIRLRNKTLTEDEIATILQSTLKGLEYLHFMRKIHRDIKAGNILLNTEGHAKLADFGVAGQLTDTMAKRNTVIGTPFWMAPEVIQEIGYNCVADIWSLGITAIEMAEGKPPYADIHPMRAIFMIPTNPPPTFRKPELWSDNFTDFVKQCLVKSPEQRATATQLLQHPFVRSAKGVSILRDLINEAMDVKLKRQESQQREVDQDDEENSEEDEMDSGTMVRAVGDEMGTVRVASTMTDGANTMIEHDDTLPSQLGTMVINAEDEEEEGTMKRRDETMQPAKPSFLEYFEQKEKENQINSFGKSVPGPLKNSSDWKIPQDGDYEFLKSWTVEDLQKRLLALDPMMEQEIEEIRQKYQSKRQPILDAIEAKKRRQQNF

[28] = target: Muscle, skeletal receptor tyrosine-protein kinase (Homo sapiens) (UniProt O15146); conditions: Compound concentration 1000.0 nM
[29] = target: Serine/threonine-protein kinase Nek9 (Homo sapiens) (UniProt Q8TD19); conditions: Compound concentration 1000.0 nM
[30] = target: Serine/threonine-protein kinase PAK 4 (Homo sapiens) (UniProt O96013); conditions: Compound concentration 1000.0 nM
[31] = target: Serine/threonine-protein kinase PAK 6 (Homo sapiens) (UniProt Q9NQU5); conditions: Compound concentration 1000.0 nM
[32] = target: Cyclin-dependent kinase 18 (Homo sapiens) (UniProt Q07002); conditions: Compound concentration 1000.0 nM
[33] = target: Phosphatidylinositol 4,5-bisphosphate 3-kinase catalytic subunit alpha isoform (Homo sapiens) (UniProt P42336); conditions: Compound concentration 1000.0 nM
[34] = target: Phosphatidylinositol 4,5-bisphosphate 3-kinase catalytic subunit beta isoform (Homo sapiens) (UniProt P42338); conditions: Compound concentration 1000.0 nM
[35] = target: Serine/threonine-protein kinase N1 (Homo sapiens) (UniProt Q16512); conditions: Compound concentration 1000.0 nM
[36] = target: cGMP-dependent protein kinase 1 (Homo sapiens) (UniProt Q13976); conditions: Compound concentration 1000.0 nM
[37] = target: RAF proto-oncogene serine/threonine-protein kinase (Homo sapiens) (UniProt P04049); conditions: Compound concentration 1000.0 nM
[38] = target: Serine/threonine-protein kinase RIO2 (Homo sapiens) (UniProt Q9BVS4); conditions: Compound concentration 1000.0 nM
[39] = target: Ribosomal protein S6 kinase alpha-3 (Homo sapiens) (UniProt P51812); conditions: Compound concentration 1000.0 nM
[40] = target: Serine/threonine-protein kinase Sgk1 (Homo sapiens) (UniProt O00141); conditions: Compound concentration 1000.0 nM
[41] = target: Proto-oncogene tyrosine-protein kinase Src (Homo sapiens) (UniProt P12931); conditions: Compound concentration 1000.0 nM
[42] = target: Serine/threonine-protein kinase 16 (Homo sapiens) (UniProt O75716); conditions: Compound concentration 1000.0 nM
[43] = target: Tyrosine-protein kinase receptor Tie-1 (Homo sapiens) (UniProt P35590); conditions: Compound concentration 1000.0 nM
[44] = target: Non-receptor tyrosine-protein kinase TNK1 (Homo sapiens) (UniProt Q13470); conditions: Compound concentration 1000.0 nM

Chain of Sigma intracellular receptor 2 (Q5BJF2 whole entry): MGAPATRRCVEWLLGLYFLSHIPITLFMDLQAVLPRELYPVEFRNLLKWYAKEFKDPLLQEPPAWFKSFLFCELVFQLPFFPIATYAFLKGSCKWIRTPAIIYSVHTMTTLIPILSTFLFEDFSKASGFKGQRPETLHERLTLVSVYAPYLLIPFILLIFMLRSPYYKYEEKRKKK

SMILES: COc1cccc(CNC(=O)c2nc3scc(COCc4ccc(C(=O)O)cc4)c3c(=O)[nH]2)c1 [T-26c]
- Ki (Histamine H1 receptor): 0.098 µM
- Ki ([1]; read-out: Ki): 4.55 µM
- Ki ([1]; read-out: pKi (converted)): 3.98 µM
- residual activity [2]: 78.7%
- residual activity [3]: 68.6%
- residual activity [4]: 100%
- residual activity [5]: 93.3%
- residual activity [6]: 100%
- residual activity [7]: 82.5%
- residual activity [8]: 70.7%
- residual activity [9]: 100%
- residual activity [10]: 94.1%
- residual activity [11]: 92.2%
- residual activity [12]: 60.4%
- residual activity [13]: 94.4%
- residual activity [14]: 82.5%
- residual activity [15]: 80.2%
- residual activity [16]: 62.5%
- residual activity [17]: 88.4%
- residual activity [18]: 73.7%
- residual activity [19]: 94.3%
- residual activity [20]: 76.2%
- residual activity [21]: 94.6%
- residual activity [22]: 63.1%
- residual activity [23]: 100%
- residual activity [24]: 88.3%
- residual activity [25]: 74.9%
- residual activity [26]: 81.2%
- residual activity [27]: 75%
- residual activity [28]: 100%
- residual activity [29]: 98.2%
- residual activity [30]: 100%
- residual activity [31]: 100%
- residual activity [32]: 100%
- residual activity [33]: 78.8%
- residual activity [34]: 54.8%
- residual activity [35]: 100%
- residual activity [36]: 100%
- residual activity [37]: 85.6%
- residual activity [38]: 72.4%
- residual activity [39]: 56.5%
- residual activity [40]: 93.4%
- residual activity [41]: 100%
- residual activity [42]: 87.2%
- residual activity [43]: 100%
- residual activity [44]: 100%
